Experimental data as given in PubChem BioAssay AID2060906 (Molecular Pharmacology Branch, DTP, NCI, 2025).

Tested on: 485176-168-R4-J1-PDC complex spheroid growth
Assay: Anticancer human tumor 485176-168-R4-J1-PDC patient-derived pancreatic adenocarcinoma cell line growth inhibition [RAS]
Conditions: for IC50: curve of first compound; for viability, T/C: stronger effect = lower value; active = viability on the fitted dose curve at most 10% of control; inactive = the rest
Summary of the method: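 Agents were tested in combination matrices in half-log decrements from a top concentration at or near clinical Cmax (10 microM if undetermined). Targets were multi-cell spheroids of tumour lines plus HUVEC and MSC stromal cells.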

[1] = second compound 0.000949 µM, first compound 0.000949 µM
[2] = second compound 0.000949 µM, first compound 0.003 µM
[3] = second compound 0.000949 µM, first compound 0.00949 µM
[4] = second compound 0.000949 µM, first compound 0.03 µM
[5] = second compound 0.000949 µM, first compound 0.0949 µM
[6] = second compound 0.000949 µM, first compound 0.3 µM
[7] = second compound 0.003 µM, first compound 0.000949 µM
[8] = second compound 0.003 µM, first compound 0.003 µM
[9] = second compound 0.003 µM, first compound 0.00949 µM
[10] = second compound 0.003 µM, first compound 0.03 µM
[11] = second compound 0.003 µM, first compound 0.0949 µM
[12] = second compound 0.003 µM, first compound 0.3 µM
[13] = second compound 0.00949 µM, first compound 0.000949 µM
[14] = second compound 0.00949 µM, first compound 0.003 µM
[15] = second compound 0.00949 µM, first compound 0.00949 µM
[16] = second compound 0.00949 µM, first compound 0.03 µM
[17] = second compound 0.00949 µM, first compound 0.0949 µM
[18] = second compound 0.00949 µM, first compound 0.3 µM
[19] = second compound 0.03 µM, first compound 0.000949 µM
[20] = second compound 0.03 µM, first compound 0.003 µM
[21] = second compound 0.03 µM, first compound 0.00949 µM
[22] = second compound 0.03 µM, first compound 0.03 µM
[23] = second compound 0.03 µM, first compound 0.0949 µM
[24] = second compound 0.03 µM, first compound 0.3 µM
[25] = second compound 0.0949 µM, first compound 0.000949 µM
[26] = second compound 0.0949 µM, first compound 0.003 µM
[27] = second compound 0.0949 µM, first compound 0.00949 µM
[28] = second compound 0.0949 µM, first compound 0.03 µM
[29] = second compound 0.0949 µM, first compound 0.0949 µM
[30] = second compound 0.0949 µM, first compound 0.3 µM
[31] = second compound 0.3 µM, first compound 0.000949 µM
[32] = second compound 0.3 µM, first compound 0.003 µM
[33] = second compound 0.3 µM, first compound 0.00949 µM
[34] = second compound 0.3 µM, first compound 0.03 µM
[35] = second compound 0.3 µM, first compound 0.0949 µM
[36] = second compound 0.3 µM, first compound 0.3 µM
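Also: spheroids exposed to compounds for seven days before readout.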
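For viability, T/C in this document: luminescence viability expressed relative to DMSO vehicle wells set as 100%.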

C=CC(=O)N1CCN(c2nc(OCC3CCCN3C)nc3c(F)c(-c4nc(N)cc(C)c4C(F)(F)F)c(Cl)cc23)C(C)C1 (stereo unspecified) + CCn1c(-c2cccnc2C(C)OC)c2c3cc(ccc31)N1CCOC(CC(NC(=O)C(C(C)C)N(C)C(=O)C3(F)CCN(C(=O)C#CC(C)(C)N(C)C)CC3)C(=O)N3CCCC(N3)C(=O)OCC(C)(C)C2)C1
inactive: viability, T/C (second compound 0.000949 µM, first compound 0.00316 µM) 109% | viability, T/C (second compound 0.000949 µM, first compound 0.01 µM) 90.2% | viability, T/C (second compound 0.000949 µM, first compound 0.0316 µM) 108% | viability, T/C (second compound 0.000949 µM, first compound 0.1 µM) 88.8% | viability, T/C (second compound 0.000949 µM, first compound 0.316 µM) 113% | viability, T/C (second compound 0.000949 µM, first compound 1 µM) 89.4% | viability, T/C (second compound 0.003 µM, first compound 0.00316 µM) 94.2% | viability, T/C (second compound 0.003 µM, first compound 0.01 µM) 94.5% | viability, T/C (second compound 0.003 µM, first compound 0.0316 µM) 96.2% | viability, T/C (second compound 0.003 µM, first compound 0.1 µM) 93.4% | viability, T/C (second compound 0.003 µM, first compound 0.316 µM) 115% | viability, T/C (second compound 0.003 µM, first compound 1 µM) 105% | viability, T/C (second compound 0.00949 µM, first compound 0.00316 µM) 92.2% | viability, T/C (second compound 0.00949 µM, first compound 0.01 µM) 93.6% | viability, T/C (second compound 0.00949 µM, first compound 0.0316 µM) 96.9% | viability, T/C (second compound 0.00949 µM, first compound 0.1 µM) 94.4% | viability, T/C (second compound 0.00949 µM, first compound 0.316 µM) 105% | viability, T/C (second compound 0.00949 µM, first compound 1 µM) 108% | viability, T/C (second compound 0.03 µM, first compound 0.00316 µM) 98.5% | viability, T/C (second compound 0.03 µM, first compound 0.01 µM) 105% | viability, T/C (second compound 0.03 µM, first compound 0.0316 µM) 101% | viability, T/C (second compound 0.03 µM, first compound 0.1 µM) 111% | viability, T/C (second compound 0.03 µM, first compound 0.316 µM) 117% | viability, T/C (second compound 0.03 µM, first compound 1 µM) 85.8% | viability, T/C (second compound 0.0949 µM, first compound 0.00316 µM) 88.2% | viability, T/C (second compound 0.0949 µM, first compound 0.01 µM) 83.7% | viability, T/C (second compound 0.0949 µM, first compound 0.0316 µM) 101% | viability, T/C (second compound 0.0949 µM, first compound 0.1 µM) 95.1% | viability, T/C (second compound 0.0949 µM, first compound 0.316 µM) 115% | viability, T/C (second compound 0.0949 µM, first compound 1 µM) 92.2% | viability, T/C (second compound 0.3 µM, first compound 0.00316 µM) 74.2% | viability, T/C (second compound 0.3 µM, first compound 0.01 µM) 74.1% | viability, T/C (second compound 0.3 µM, first compound 0.0316 µM) 79.6% | viability, T/C (second compound 0.3 µM, first compound 0.1 µM) 82% | viability, T/C (second compound 0.3 µM, first compound 0.316 µM) 94.4% | viability, T/C (second compound 0.3 µM, first compound 1 µM) 80.8%
> 1000 nM: IC50 (second compound 0.000949 µM) | IC50 (second compound 0.003 µM) | IC50 (second compound 0.00949 µM) | IC50 (second compound 0.03 µM) | IC50 (second compound 0.0949 µM) | IC50 (second compound 0.3 µM)

CC1(C)CCC(Nc2ncc(C(F)(F)F)c(-c3c[nH]c4c(P(C)(C)=O)c(C#N)ccc34)n2)CN1 (stereo unspecified) + CCn1c(-c2cccnc2C(C)OC)c2c3cc(ccc31)N1CCOC(CC(NC(=O)C(C(C)C)N(C)C(=O)C3(F)CCN(C(=O)C#CC(C)(C)N(C)C)CC3)C(=O)N3CCCC(N3)C(=O)OCC(C)(C)C2)C1
26.5 nM: IC50 (second compound 0.03 µM)
inactive: viability, T/C [1] 91.9% | viability, T/C [2] 93.3% | viability, T/C [3] 86.8% | viability, T/C [4] 59.5% | viability, T/C [5] 52.8% | viability, T/C [6] 54.1% | viability, T/C [7] 99.1% | viability, T/C [8] 90.7% | viability, T/C [9] 87.5% | viability, T/C [10] 58.3% | viability, T/C [11] 54.5% | viability, T/C [12] 51.7% | viability, T/C [13] 97.6% | viability, T/C [14] 91% | viability, T/C [15] 82.2% | viability, T/C [16] 54.1% | viability, T/C [17] 50.5% | viability, T/C [18] 44.9% | viability, T/C [19] 89.4% | viability, T/C [20] 112% | viability, T/C [21] 73.5% | viability, T/C [22] 54.5% | viability, T/C [23] 39% | viability, T/C [24] 47.9% | viability, T/C [25] 77.9% | viability, T/C [26] 87.1% | viability, T/C [27] 67.7% | viability, T/C [28] 42.2% | viability, T/C [29] 34.6% | viability, T/C [30] 34.1% | viability, T/C [31] 81.9% | viability, T/C [32] 69.1% | viability, T/C [33] 58.7% | viability, T/C [34] 34% | viability, T/C [35] 26.8% | viability, T/C [36] 30.5%
66.8 nM: IC50 (second compound 0.00949 µM)
13.2 nM: IC50 (second compound 0.3 µM)
20.8 nM: IC50 (second compound 0.0949 µM)
> 300 nM: IC50 (second compound 0.000949 µM) | IC50 (second compound 0.003 µM)

CCc1c2c(nc3ccc(O)cc13)-c1cc3c(c(=O)n1C2)COC(=O)[C@]3(O)CC + CCn1c(-c2cccnc2C(C)OC)c2c3cc(ccc31)N1CCOC(CC(NC(=O)C(C(C)C)N(C)C(=O)C3(F)CCN(C(=O)C#CC(C)(C)N(C)C)CC3)C(=O)N3CCCC(N3)C(=O)OCC(C)(C)C2)C1
6.74 nM: IC50 (second compound 0.0949 µM)
7.31 nM: IC50 (second compound 0.3 µM)
inactive: viability, T/C [1] 89% | viability, T/C [2] 84.4% | viability, T/C [3] 56% | viability, T/C [4] 27.5% | viability, T/C [5] 12.2% | viability, T/C [7] 92.2% | viability, T/C [8] 84.3% | viability, T/C [9] 43% | viability, T/C [10] 25.8% | viability, T/C [11] 10.7% | viability, T/C [13] 89.5% | viability, T/C [14] 96.3% | viability, T/C [15] 63.1% | viability, T/C [16] 27.6% | viability, T/C [17] 10.5% | viability, T/C [19] 96.3% | viability, T/C [20] 94.1% | viability, T/C [21] 52.5% | viability, T/C [22] 29.2% | viability, T/C [23] 10.9% | viability, T/C [25] 91.5% | viability, T/C [26] 67.8% | viability, T/C [27] 43.4% | viability, T/C [28] 19.7% | viability, T/C [31] 68.7% | viability, T/C [32] 64.1% | viability, T/C [33] 45.9% | viability, T/C [34] 10.6%
8.73 nM: IC50 (second compound 0.003 µM)
15 nM: IC50 (second compound 0.00949 µM)
12.5 nM: IC50 (second compound 0.03 µM)
12.7 nM: IC50 (second compound 0.000949 µM)
active: viability, T/C [6] 5.05% | viability, T/C [12] 7.84% | viability, T/C [18] 7.04% | viability, T/C [24] 4.84% | viability, T/C [29] 5.98% | viability, T/C [30] 3.35% | viability, T/C [35] 4.63% | viability, T/C [36] 2.53%
